Results: PMC11370452 (bioRxiv, 2024)

What was measured:
GABABR = GABABR (Rattus norvegicus, UniProt O88871+Q9Z0U4); type: cell-based; details: with Gαi bystander BRET sensor expression versus control
MOR = details: database annotation; cited from earlier work

GABABR, sequence (Q9Z0U4 17-960 limits assumed): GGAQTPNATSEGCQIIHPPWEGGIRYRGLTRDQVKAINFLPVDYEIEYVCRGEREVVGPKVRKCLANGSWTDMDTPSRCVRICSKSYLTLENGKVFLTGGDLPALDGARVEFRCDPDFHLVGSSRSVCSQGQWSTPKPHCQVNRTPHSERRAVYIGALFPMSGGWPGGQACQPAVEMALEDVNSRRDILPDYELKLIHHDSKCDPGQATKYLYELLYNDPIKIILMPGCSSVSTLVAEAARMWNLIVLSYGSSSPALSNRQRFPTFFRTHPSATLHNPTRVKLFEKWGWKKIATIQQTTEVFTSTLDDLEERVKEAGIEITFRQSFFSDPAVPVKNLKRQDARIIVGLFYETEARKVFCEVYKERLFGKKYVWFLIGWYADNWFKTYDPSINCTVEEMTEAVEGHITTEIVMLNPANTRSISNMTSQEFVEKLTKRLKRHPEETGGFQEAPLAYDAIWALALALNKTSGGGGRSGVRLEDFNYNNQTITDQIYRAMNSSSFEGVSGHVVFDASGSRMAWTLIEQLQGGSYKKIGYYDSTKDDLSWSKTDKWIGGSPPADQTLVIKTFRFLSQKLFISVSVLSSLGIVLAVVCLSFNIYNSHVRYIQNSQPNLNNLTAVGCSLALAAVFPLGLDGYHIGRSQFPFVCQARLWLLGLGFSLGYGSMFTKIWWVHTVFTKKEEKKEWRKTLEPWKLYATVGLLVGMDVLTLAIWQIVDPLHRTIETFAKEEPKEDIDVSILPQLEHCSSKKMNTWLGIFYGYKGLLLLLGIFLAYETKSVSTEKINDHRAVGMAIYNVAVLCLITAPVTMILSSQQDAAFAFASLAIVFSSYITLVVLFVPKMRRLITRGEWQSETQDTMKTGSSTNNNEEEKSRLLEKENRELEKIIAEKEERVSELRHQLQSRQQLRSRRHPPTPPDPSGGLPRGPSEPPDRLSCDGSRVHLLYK
GABABR, sequence (O88871 41-940 partner): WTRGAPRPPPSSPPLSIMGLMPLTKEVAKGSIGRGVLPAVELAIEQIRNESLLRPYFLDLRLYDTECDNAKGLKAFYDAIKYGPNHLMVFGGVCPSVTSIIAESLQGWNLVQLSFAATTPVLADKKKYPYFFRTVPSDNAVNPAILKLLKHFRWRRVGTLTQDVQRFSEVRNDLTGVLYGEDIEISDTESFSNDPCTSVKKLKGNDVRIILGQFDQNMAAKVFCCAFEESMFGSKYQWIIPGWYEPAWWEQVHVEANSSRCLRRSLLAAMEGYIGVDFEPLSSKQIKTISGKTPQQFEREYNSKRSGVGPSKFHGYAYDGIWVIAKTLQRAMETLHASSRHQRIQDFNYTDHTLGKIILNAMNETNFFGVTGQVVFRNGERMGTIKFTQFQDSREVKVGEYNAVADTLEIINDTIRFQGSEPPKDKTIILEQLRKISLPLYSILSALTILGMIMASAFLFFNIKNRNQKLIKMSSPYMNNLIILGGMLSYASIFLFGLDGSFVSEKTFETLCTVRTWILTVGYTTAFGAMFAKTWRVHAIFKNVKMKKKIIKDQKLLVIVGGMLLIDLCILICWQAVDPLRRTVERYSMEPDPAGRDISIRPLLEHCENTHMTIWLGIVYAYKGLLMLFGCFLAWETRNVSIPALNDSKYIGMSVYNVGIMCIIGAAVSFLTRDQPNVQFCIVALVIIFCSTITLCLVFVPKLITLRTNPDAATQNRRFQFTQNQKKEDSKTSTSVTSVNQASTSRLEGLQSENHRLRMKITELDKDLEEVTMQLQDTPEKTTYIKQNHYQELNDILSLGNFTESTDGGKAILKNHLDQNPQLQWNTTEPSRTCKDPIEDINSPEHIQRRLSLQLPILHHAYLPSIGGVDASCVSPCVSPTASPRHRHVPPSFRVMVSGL

Compound | increase in the IC50 of inhibition by GABA (GABABR) | Agonist efficacy, MOR: IUPHAR annotation (MOR)
NCCCC(=O)O [GABA] | ~ 4 fold | 
Leu-Enkephalin |  | partial agonist
